Data on 2 molecules can be found in article PMC10842878 (Peptides, 2023).

For data set [1] the following is noted: H2O; cited from earlier work.
Data set [2] is classed as physicochemical. The conditions noted are these: 150 μM peptide, 50 mM sodium phosphate buffer pH 7, 37°C, 2 weeks.

Entries after “also recorded” stand apart in the source; their conditions may differ.

With `C/C1=C2/[N-]C([C@H](CC(N)=O)[C@@]2(C)CCC(=O)NCC(C)O)[C@]2(C)N=C(/C(C)=C3N=C(/C=C4N=C1[C@@H](CCC(N)=O)C\4(C)C)[C@@H](CCC(N)=O)[C@]\3(C)CC(N)=O)[C@@H](CCC(N)=O)[C@]2(C)CC(N)=O.[C-]#N.[C-]#N.[Co]` (some centres unmarked) [Cbi, dicyanocobinamide], in data set [1], the Water solubility was 400 mg/mL. For the molecule “HSQGTFTSDYSKYLDSrRAQDFVQWLMNTZ [compound 7]”, the “Chemical stability (% of original concentration retained in solution)” value in data set [2] is listed as “highest chemical stability; also recorded: highest % concentration retained”.
